Reference: patent US12692269B2, “Therapeutic compounds” (Genentech, Inc., priority 2019, dated 2026)

Legend:
Assay type in all cases: binding
[1] = target: TEAD4 TAZ (amino acids 13-57) (Homo sapiens, UniProt Q15561); assay: TEAD4-TAZ HTRF (TR-FRET) protein-protein interaction assay; conditions: for TEAD4 TAZ HTRF combined: Max % Inhibition: TEAD4, TAZ peptide; for EC50: TEAD4-TAZ HTRF, TR-FRET 665 nm/615 nm, read-out: TEAD4 TAZ HTRF combined: EC50
In short: (§1)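 TEAD YBD (aa 217-447, His-tag) + Eu anti-His; cpd 30 min; + biotin-YAP 50-100 or biotin-TAZ 13-57 / SA-XL665; 60 min RT; TR-FRET 665/615; 4-parameter IC50/EC50.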

[2] = target: TEAD3 TAZ (amino acids 13-57) (Homo sapiens, UniProt Q99594); assay: TEAD3-TAZ HTRF (TR-FRET) protein-protein interaction assay; conditions: for TEAD3 TAZ HTRF combined: Max % Inhibition: TEAD3, TAZ peptide; for EC50: TEAD3-TAZ HTRF, TR-FRET 665 nm/615 nm, read-out: TEAD3 TAZ HTRF combined: EC50
Chain of TEAD3 TAZ (amino acids 13-57) (Q99594 173-435 limits assumed): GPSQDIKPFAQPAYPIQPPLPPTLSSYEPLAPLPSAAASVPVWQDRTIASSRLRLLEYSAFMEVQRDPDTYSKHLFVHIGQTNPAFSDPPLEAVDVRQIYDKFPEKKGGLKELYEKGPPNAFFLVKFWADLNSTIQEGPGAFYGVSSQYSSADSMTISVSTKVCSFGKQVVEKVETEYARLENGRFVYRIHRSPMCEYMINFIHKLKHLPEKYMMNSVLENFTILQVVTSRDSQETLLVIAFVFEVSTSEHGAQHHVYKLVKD
In short: as §1

[3] = target: TEAD1 TAZ (amino acids 13-57) (Homo sapiens, UniProt P28347); assay: TEAD1-TAZ HTRF (TR-FRET) protein-protein interaction assay; conditions: for TEAD1 TAZ HTRF combined: Max % Inhibition: TEAD1, TAZ peptide; for EC50: TEAD1-TAZ HTRF, TR-FRET 665 nm/615 nm, read-out: TEAD1 TAZ HTRF combined: EC50
Chain of TEAD1 TAZ (amino acids 13-57) (P28347 167-426 limits assumed): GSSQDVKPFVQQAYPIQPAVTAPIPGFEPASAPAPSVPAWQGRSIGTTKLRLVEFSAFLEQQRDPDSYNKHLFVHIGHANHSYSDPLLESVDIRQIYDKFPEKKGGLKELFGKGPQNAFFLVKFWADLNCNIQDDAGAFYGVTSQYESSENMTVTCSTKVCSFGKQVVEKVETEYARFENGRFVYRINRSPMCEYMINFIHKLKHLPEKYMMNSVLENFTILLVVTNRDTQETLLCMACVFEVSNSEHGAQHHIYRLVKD
In short: as §1

[4] = target: TEAD2 YAP50-100 (Homo sapiens, UniProt Q15562); assay: TEAD2-YAP HTRF (TR-FRET) protein-protein interaction assay; conditions: TEAD2, YAP peptide 50-100, HTRF; for EC50: read-out: TEAD2 YAP50-100 HTRF combined: EC50
Chain of TEAD2 YAP50-100 (Q15562 217-447): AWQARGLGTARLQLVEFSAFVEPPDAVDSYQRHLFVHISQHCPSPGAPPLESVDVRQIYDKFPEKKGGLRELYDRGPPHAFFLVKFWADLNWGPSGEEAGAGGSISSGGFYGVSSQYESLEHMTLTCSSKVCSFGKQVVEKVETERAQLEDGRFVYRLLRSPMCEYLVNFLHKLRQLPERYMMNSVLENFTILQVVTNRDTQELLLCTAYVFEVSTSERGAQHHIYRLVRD
In short: as §1

[5] = target: TEAD2 TAZ (amino acids 13-57) (Homo sapiens, UniProt Q15562); assay: TEAD2-TAZ HTRF (TR-FRET) protein-protein interaction assay; conditions: for TEAD2 TAZ HTRF combined: Max % Inhibition: TEAD2, TAZ peptide; for EC50: TEAD2-TAZ HTRF, TR-FRET 665 nm/615 nm, read-out: TEAD2 TAZ HTRF combined: EC50
Chain of TEAD2 TAZ (amino acids 13-57) (Q15562 217-447): as above
In short: as §1

[6] = target: TEAD4 YAP50-100 (Homo sapiens, UniProt Q15561); assay: TEAD4-YAP HTRF (TR-FRET) protein-protein interaction assay; conditions: TEAD4, YAP peptide 50-100, HTRF; for EC50: read-out: TEAD4 YAP50-100 HTRF combined: EC50
Chain of TEAD4 YAP50-100 (Q15561 217-434 limits assumed): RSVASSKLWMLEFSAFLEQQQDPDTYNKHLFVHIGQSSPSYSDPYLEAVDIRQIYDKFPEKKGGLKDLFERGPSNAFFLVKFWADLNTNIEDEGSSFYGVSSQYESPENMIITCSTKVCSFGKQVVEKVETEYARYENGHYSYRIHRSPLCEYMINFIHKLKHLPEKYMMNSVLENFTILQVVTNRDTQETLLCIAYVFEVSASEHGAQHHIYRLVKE
In short: as §1

[7] = target: TEAD3 YAP50-100 (Homo sapiens, UniProt Q99594); assay: TEAD3-YAP HTRF (TR-FRET) protein-protein interaction assay; conditions: TEAD3, YAP peptide 50-100, HTRF; for EC50: read-out: TEAD3 YAP50-100 HTRF combined: EC50
Chain of TEAD3 YAP50-100 (Q99594 173-435 limits assumed): as the sequence (Q99594 173-435 limits assumed) above
In short: as §1

[8] = target: TEAD1 YAP50-100 (Homo sapiens, UniProt P28347); assay: TEAD1-YAP HTRF (TR-FRET) protein-protein interaction assay; conditions: TEAD1, YAP peptide 50-100, HTRF; for EC50: read-out: TEAD1 YAP50-100 HTRF combined: EC50
Chain of TEAD1 YAP50-100 (P28347 167-426 limits assumed): as the sequence (P28347 167-426 limits assumed) above
In short: as §1

Chain of TEAD4 TAZ (amino acids 13-57) (Q15561 217-434 limits assumed): as the sequence (Q15561 217-434 limits assumed) above

| SMILES | TEAD4 TAZ HTRF combined: Max % Inhibition [1] | EC50 [1] | TEAD3 TAZ HTRF combined: Max % Inhibition [2] | EC50 [2] | TEAD1 TAZ HTRF combined: Max % Inhibition [3] | EC50 [3] | TEAD2 YAP50-100 HTRF combined: Max % Inhibition [4] | EC50 [4] | TEAD2 TAZ HTRF combined: Max % Inhibition [5] | EC50 [5] | TEAD4 YAP50-100 HTRF combined: Max % Inhibition [6] | EC50 [6] | TEAD3 YAP50-100 HTRF combined: Max % Inhibition [7] | EC50 [7] | TEAD1 YAP50-100 HTRF combined: Max % Inhibition [8] | EC50 [8] |
| --- | --- | --- | --- | --- | --- | --- | --- | --- | --- | --- | --- | --- | --- | --- | --- | --- |
| Cc1nccnc1-c1nn2c(=O)cc(-c3ccc(O[C@@H](c4ccccc4)C(F)(F)F)cc3)[nH]c2c1C(=O)N1CC(CF)C1 [Compound 67, (S)-3-(3-(Fluoromethyl)azetidine-1-carbonyl)-2-(3-methylpyrazin-2-yl)-5-(4-(2,2,2-trifluoro-1-phenylethoxy)phenyl)pyrazolo[1,5-a]pyrimidin-7(4H)-one] | 71.5% | 4000 nM | 71.0% | 200 nM | 65.0% | 220 nM | 92.5% | 50 nM | 89.0% | 50 nM | 72.5% | 4250 nM | 79.0% | 180 nM | 69.0% | 190 nM |
| Cc1nccnc1-c1nn2c(=O)cc(-c3ccc(O[C@H](c4ccccc4)C(F)(F)F)cc3)[nH]c2c1C(=O)N1CC(CF)C1 [Compound 68, (R)-3-(3-(Fluoromethyl)azetidine-1-carbonyl)-2-(3-methylpyrazin-2-yl)-5-(4-(2,2,2-trifluoro-1-phenylethoxy)phenyl)pyrazolo[1,5-a]pyrimidin-7(4H)-one] | 61.5% | 4950 nM | 64.5% | 590 nM | 63.0% | 270 nM | 84.0% | 60 nM | 75.5% | 60 nM | 64.5% | 5550 nM | 67.5% | 510 nM | 65.0% | 190 nM |
| CCCCCCC/C=C/c1cc(=O)n2nc(-c3nccnc3C)c(C(=O)N3C[C@H](CF)[C@@H]3C)c2[nH]1 [Compound 70, 3-((2S,3S)-3-(fluoromethyl)-2-methylazetidine-1-carbonyl)-2-(3-methylpyrazin-2-yl)-5-((E)-non-1-en-1-yl)pyrazolo[1,5-a]pyrimidin-7(4H)-one] | 63.5% | 970 nM | 52.5% | 30 nM | 54.5% | 20 nM | 67.0% |  | 66.0% | 10 nM | 58.0% | 1300 nM | 64.0% | 40 nM | 58.0% | 10 nM |
| CCCCCCCCCc1cc(=O)n2nc(-c3nccnc3C)c(C(=O)N3C[C@H](CF)[C@@H]3C)c2[nH]1 [Compound 71, 3-((2S,3S)-3-(fluoromethyl)-2-methylazetidine-1-carbonyl)-2-(3-methylpyrazin-2-yl)-5-nonylpyrazolo[1,5-a]pyrimidin-7(4H)-one] | 56.5% | 3000 nM | 49.0% | 50 nM | 52.5% | 50 nM | 64.0% | 10 nM | 64.0% | 10 nM | 48.5% | 3450 nM | 61.0% | 60 nM | 53.0% | 50 nM |
| [2H]C1([2H])C([2H])([2H])C([2H])([2H])C([2H])(c2ccc(-c3cc(=O)n4nc(-c5nccnc5C)c(C(=O)N5C[C@H](CF)[C@@H]5C)c4[nH]3)cc2)C([2H])([2H])C1([2H])[2H] [Compound 72, 3-[(2S,35)-3-(fluoromethyl)-2-methyl-azetidine-1-carbonyl]-2-(3-methylpyrazin-2-yl)-5-[4-(1,2,2,3,3,4,4,5,5,6,6-undecadeuteriocyclohexyl)phenyl]-4H-pyrazolo[1,5-a]pyrimidin-7-one] | 56.0% | 30 nM | 71.5% | 170 nM | 74.0% | 80 nM | 73.0% | 20 nM | 75.0% | 20 nM | 54.0% | 30 nM | 76.0% | 160 nM | 77.0% | 70 nM |

Continued by falling EC50 [1], values first:

| TEAD4 TAZ HTRF combined: Max % Inhibition [1] | EC50 [1] | TEAD3 TAZ HTRF combined: Max % Inhibition [2] | EC50 [2] | TEAD1 TAZ HTRF combined: Max % Inhibition [3] | EC50 [3] | TEAD2 YAP50-100 HTRF combined: Max % Inhibition [4] | EC50 [4] | TEAD2 TAZ HTRF combined: Max % Inhibition [5] | EC50 [5] | TEAD4 YAP50-100 HTRF combined: Max % Inhibition [6] | EC50 [6] | TEAD3 YAP50-100 HTRF combined: Max % Inhibition [7] | EC50 [7] | TEAD1 YAP50-100 HTRF combined: Max % Inhibition [8] | EC50 [8] | SMILES |
| --- | --- | --- | --- | --- | --- | --- | --- | --- | --- | --- | --- | --- | --- | --- | --- | --- |
| 64.0% | 510 nM | 74.0% | 220 nM | 78.5% | 40 nM | 66.5% | 10 nM | 66.5% | 10 nM | 60.0% | 610 nM | 78.0% | 200 nM | 80.0% | 30 nM | Cc1nccnc1-c1nn2c(=O)cc(-c3ccc(-c4ccccc4)cc3)[nH]c2c1C(=O)N1CC(CF)C1 [Compound 60, 5-([1,1′-Biphenyl]-4-yl)-3-(3-(fluoromethyl)azetidine-1-carbonyl)-2-(3-methylpyrazin-2-yl)pyrazolo[1,5-a]pyrimidin-7(4H)-one] |
| 42.5% | 180 nM | 59.0% | 340 nM | 65.5% | 160 nM | 61.5% | 30 nM | 61.0% | 30 nM | 40.0% | 180 nM | 65.5% | 290 nM | 68.0% | 160 nM | Cc1nccnc1-c1nn2c(=O)cc(-c3ccc(C4(F)CCCCC4)cc3)[nH]c2c1C(=O)N1CC(CF)C1 [Compound 59, 5-(4-(1-Fluorocyclohexyl)phenyl)-3-(3-(fluoromethyl)azetidine-1-carbonyl)-2-(3-methylpyrazin-2-yl)pyrazolo[1,5-a]pyrimidin-7(4H)-one] |
| 68.5% | 140 nM | 58.5% | 100 nM | 70.5% | 40 nM | 63.0% | 10 nM | 66.5% | 10 nM | 59.0% | 180 nM | 64.5% | 90 nM | 71.0% | 40 nM | CCCCc1ccc(-c2cc(=O)n3nc(-c4nccnc4C)c(C(=O)N4CC(CF)C4)c3[nH]2)cc1 [Compound 58, 5-(4-Butylphenyl)-3-(3-(fluoromethyl)azetidine-1-carbonyl)-2-(3-methylpyrazin-2-yl)pyrazolo[1,5-a]pyrimidin-7(4H)-one] |
| 65.5% | 130 nM | 75.5% | 120 nM | 73.5% | 50 nM | 76.0% | 10 nM | 75.5% | 10 nM | 62.5% | 170 nM | 80.0% | 110 nM | 79.0% | 40 nM | Cc1nccnc1-c1nn2c(=O)cc(-c3ccc(C4CCCC4)cc3)[nH]c2c1C(=O)N1C[C@H](CF)[C@@H]1C [Compound 69, 5-(4-Cyclopentylphenyl)-3-((2S,3S)-3-(fluoromethyl)-2-methylazetidine-1-carbonyl)-2-(3-methylpyrazin-2-yl)pyrazolo[1,5-a]pyrimidin-7(4H)-one] |
